Results: patent US20080300178A1, “Method For Treating Huntington's Disease by Inhibiting Dephosphorylation of Huntingtin at S421” (Insitut Curie, priority 2006, published 2008)
Entries after “also recorded” stand apart in the source; their conditions may differ.

How the values were obtained:
[1] = tested on: endogenous huntingtin S421 phosphorylation; assay: Phosphorylation of S421 in primary striatal neurons (Western blot); format: cell-based; conditions: rat striatal neurons, 1 μM FK506
Method: (§1) Cell culture, transfection and drug treatments. Primary cultures of striatal neurons were prepared from E17 Sprague Dawley rats and transfected at 4 days in vitro by a modified calcium phosphate technique (Saudou et al., 1998). Mouse neuronal cells derived from wildtype huntingtin mice (neuronal cells, +/+) and from Hdh^Q109 knock-in mice (109Q/109Q) were cultured as previously described (Trettel et al., 2000) and transfected with Lipofectamine 2000 (Invitrogen, Breda, The Netherlands). When cotransfected (FIG. 3A), the ratio 480-17Q/Akt/CaNA-ΔCaM/CaNB was 1:0.5:1:1. Human HEK 293 cells were cultured in DMEM supplemented with 10% bovine calf serum (BCS) and were transfected by the calcium phosphate technique. SHSY-5Y cells and Jurkat T cells were grown in RPMI supplemented with 10% BCS. Jurkat T cells were transferred to tyrodes buffer (137 mM NaCl, 3 mM KCl, 20 mM Hepes, 2 mM MgCl2, 1 mM CaCl2, 5.6 mM glucose, 0.3 mg/ml BSA; 4×10^6 cells/ml) prior addition of FK506 (1 μM) and/or ionomycin (2.5 μM).
(§2) Western blot analysis. After transfection/incubation with drugs, cells were washed with ice cold phosphate-buffered saline prior to scraping and lysis. […] Quantification of the signal was performed by densitometric scanning of the film using ImageJ software.

[2] = tested on: Parkinson's disease; conditions: cited from earlier work
[3] = tested on: endogenous huntingtin S421 phosphorylation; assay: Phosphorylation of endogenous huntingtin at S421 in Jurkat T cells (Western blot); format: cell-based, human; conditions: ionomycin 2.5 μM
Method: as §1, §2

[4] = tested on: endogenous huntingtin S421 phosphorylation; assay: Immunofluorescence of phospho-S421-huntingtin in SHSY-5Y cells transfected with wild-type CaNA/CaNB; format: cell-based, human; conditions: 1 μM ionomycin, 15 min
Method: Immunofluorescence experiments. SHSY-5Y cells were grown on uncoated glass coverslips, transfected with wild-type CaNA/B for 24 hours and treated for 15 min with 1 μM ionomycin (Sigma) or left untreated. Cells were fixed with 4% paraformaldehyde-PHEM buffer for 20 min (in mM: PIPES, 120; HEPES, 50, EGTA, 20; Mg-acetate 4) and incubated with antiphospho-S421-huntingtin-763 (1:100) and anti-CaNA (1:200; Cat#C1956, Sigma) antibodies. Pictures were captured with a three-dimensional deconvolution imaging system as previously described (Gauthier et al., 2004). Mean fluorescence intensity of the phospho-S421 signal was next quantified using Metamorph software (Universal Imaging Corp, Princeton, N.J., USA). For each pair of cells (transfected/non transfected), signal from the transfected cell was standardized by giving a value of 100 to the non-transfected cell. Only non-mitotic cells of the same approximate size were considered. More than 30 cells in total were analyzed in two independent experiments.

[5] = tested on: BDNF-containing vesicles transport; assay: BDNF-containing vesicle transport in 109Q/109Q cells (videomicroscopy); format: cell-based, mouse; conditions: IGF-1 treatment
Method: (§3) Videomicroscopy Experiments and Analyses. For videoexperiments rat primary cortical neurons, +/+, and 109Q/109Q cells established from Hdh^Q111 knock-in mouse were prepared, cultured and transfected as previously described (Gauthier et al., 2004; Humbert et al., 2002; Saudou et al., 1998; Trettel et al., 2000). In some cases, primary cultures of cortical neurons are electroporated with the rat neuron Nucleofector® kit according to the supplier's manual (Amaxa, Cologne). Forskolin ([…]; Sigma) and IBMX ([…]; Sigma) were added to the cultures 5 hours after transfection.
(§4) Videomicroscopy experiments were done two or four days after transfection. Cells were co-transfected with BDNF-eGFP and various constructs of htt or the corresponding empty vectors with a DNA ratio of 1:4. Live videomicroscopy was carried out using an imaging system previously detailed (Gauthier et al., 2004). Cells were grown on glass coverslip that was mounted in a Ludin chamber. The microscope and the chamber were kept at 37° C. (33° C. for knock-in cells). Stacks of 10-15 images with a Z-step of 0.3 μm were acquired with a 100× PlanApo N.A. 1.4 oil immersion objective coupled to a piezo device (PI). Images were collected in stream mode using a Cool Snap HQ camera (Ropper Scientific) set at 2×2 binning with an exposure time of 50 to 100 ms (frequency of 2). […]

[6] = tested on: BDNF-containing vesicles transport; assay: BDNF-containing vesicle transport in primary cortical neurons expressing FL-htt-75Q (videomicroscopy); format: cell-based, rat; conditions: IGF-1 treatment
Method: as §3, §4

[7] = target: GST-huntingtin (amino acids 384 to 467 of human huntingtin fused to GST), phosphorylated at S421 by Akt (UniProt P42858)
[8] = target: GST-huntingtin (amino acids 384 to 467 of human huntingtin fused to GST), before phosphorylation (UniProt P42858)

C=CC[C@@H]1/C=C(\C)C[C@H](C)C[C@H](OC)[C@H]2O[C@@](O)(C(=O)C(=O)N3CCCC[C@H]3C(=O)O[C@H](/C(C)=C/[C@@H]3CC[C@@H](O)[C@H](OC)C3)[C@H](C)[C@@H](O)CC1=O)[C@H](C)C[C@@H]2OC [FK506]
time for which S421 phosphorylation remained sustained [1]: at least 6 hours

CCC(C)(C)C(=O)C(=O)N1CCC[C@H]1C(=O)OCCCc1cccnc1 [GPI-1046]
outcome of clinical trials [2]: have failed

C[C@H](CCC(=O)O)C[C@H](C)C[C@H](C)C(=O)/C=C(\O)[C@H](C)C[C@H](C)C/C=C/[C@@H](C)[C@@H](O)[C@@H](C)[C@@H](O)C[C@@H]1CC[C@@](C)([C@H]2CC[C@@](C)([C@@H](C)O)O2)O1 [ionomycin]
S421 phosphorylation after ionomycin [3]: rapid dephosphorylation of huntingtin on S421 | huntingtin S421 phosphorylation (mean fluorescence intensity) [4]: reduction of huntingtin phosphorylation at S421 | huntingtin S421 phosphorylation (mean fluorescence intensity) ([4]; listed as Ionomycin): decreased huntingtin S421 phosphorylation

IGF-1: IGF-1, activator of the IGF-1/Akt pathway
pausing time of BDNF-containing vesicles [5]: decreasing pausing time; also recorded: decreases pausing time | velocity of BDNF-containing vesicles [5]: statistically increasing velocity; also recorded: increases velocity | mean velocity of BDNF-containing vesicles [6]: statistically significant increase in the velocity of BDNF vesicles; also recorded: significantly increases the mean velocity | pausing time of BDNF-containing vesicles [6]: decreased the pausing time; also recorded: decreases their pausing time

purified calcineurin (native protein isolated from bovine brain)
dephosphorylation of S421 (immunoblot with the anti-phospho-huntingtin-S421-763 antibody) [7]: calcineurin dephosphorylates S421 of huntingtin in vitro in a time and dose-dependent manner

recombinant Akt
phosphorylation of S421 (in vitro kinase assay, immunoblot) [8]: resulting in the phosphorylation of GST-huntingtin at S421
